# Assay results taken from US10975064B2, “RIP1 inhibitory compounds and methods for making and using the same” (Rigel Pharmaceuticals, Inc., priority 2018, dated 2021).
# Tested on: TNF-alpha induced hypothermia
# Test: acute hypothermia mouse model
# Type: in vivo
# Details: 15 mg/kg, oral gavage, C57BL/6 mice
# Protocol: In this example, an acute hypothermia mouse model assay was used to evaluate the ability of compounds disclosed herein to inhibit TNF-alpha induced hypothermia. Female C57BL/6 mice are randomly grouped and weighed on Day-1. On the day of the study (Day 0), mice are administered vehicle or test article by oral gavage. Fifteen minutes after oral administration of test agents, each mouse is administered an intraperitoneal (IP) injection of solution containing recombinant human tumor necrosis factor alpha (TNF-a, 25.0 μg) and zVAD-FMK (200 μg). Body temperature is measured at hour zero (before IP injections) and every hour via rectal probe temperature measuring device. Three (3) hours after IP injections of TNF-a and zVAD/FMK, mice are euthanized by CO2 asphyxiation and blood is collected via cardiac puncture. Serum and plasma are harvested for determination of cytokine and compound levels, respectively. Separate groups of mice (satellite mice) are included for the determination of compound levels in plasma at the time of administration of TNFa/zVAD-FMK. (S)-5-benzyl-N-(5-methyl-4-oxo-2,3,4,5-tetrahydrobenzo[b][1,4]oxazepin-3-yl)-4H-1,2,4-triazole-3-carboxamide (WO 2014/125444), having a structure as illustrated below, was used as a comparative compound and was examined using the same assay protocol.
structure (smiles),measurement,value
"CN1C(=O)[C@@H](NC(=O)c2n[nH]c(Cc3ccccc3)n2)COc2ccc(N3CC4(CCOCC4)C3)cc21 [Compound I-5, (S)-5-benzyl-N-(5-methyl-4-oxo-7-(7-oxa-2-azaspiro[3.5]nonan-2-yl)-2,3,4,5-tetrahydrobenzo[b][1,4]oxazepin-3-yl)-1H-1,2,4-triazole-3-carboxamide]",inhibition of TNF-alpha induced hypothermia,81%
